The record followed here is ChEMBL document CHEMBL1201862, “PubChem BioAssay data set” (2004).

Among the test systems are A549; SW-620; EKVX; K562; MOLT-4; NCI-H522; HCT-116; SF-539; SF-268; UACC-257; KM12; NCI-H23; COLO 205; RPMI-8226; CCRF-CEM; SK-OV-3; U-251; SNB-75; NCI-H460; LOX IMVI.
Common to all, as to assay: DTP human tumour cell line panel, 48 h

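Protocol summary: plate cells (96-well), add compound at 5 concentrations, incubate 48 h, interpolate endpoints linearly. Abbreviation: GI50, concentration required for 50% inhibition of growth.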 Active and inactive are the calls of the source. Rule as the data show it: active = GI50 up to about 1.1 µM and inactive = higher. A value given as a limit tells only on which side of the number the result lay.

What is called GI50 is the concentration giving 50% growth inhibition.

For `C/C(N)=N/OCc1nc(C)no1`, the GI50 with A549, with SW-620, with EKVX, in the test on K562, in the test with MOLT-4 and in the test on NCI-H522 was > 100 µM (inactive) throughout. Also, the GI50 in the test on HCT-116, with SF-539, with SF-268, in the test on UACC-257, in the test on KM12 and in the test with NCI-H23 was > 100 µM (inactive) throughout. Besides, the GI50 in the test with COLO 205, in the test on RPMI-8226, in the test on CCRF-CEM, in the test with SK-OV-3, in the test on U-251 and with SNB-75 was > 100 µM (inactive) in each case. In addition, in the test with NCI-H460, the GI50 is > 100 µM (inactive).
For `CC(=N/NC(=S)Nc1c(C)n(C)n(-c2ccccc2)c1=O)/C(C)=N\NC(=S)Nc1c(C)n(C)n(-c2ccccc2)c1=O`, the GI50 in the test with A549, with SW-620, with EKVX, in the test with MOLT-4, with NCI-H522 and in the test on HCT-116 was > 100 µM (inactive) each time. The GI50 in the test on SF-539, in the test on SF-268, in the test on UACC-257, in the test on KM12, with NCI-H23 and with COLO 205 was > 100 µM (inactive) throughout. Further, the GI50 with SK-OV-3, with U-251, with SNB-75 and with NCI-H460 was > 100 µM (inactive) in each case.
On to `COc1ccc(-c2c3c(nc4[nH]c(=S)[nH]c(=S)c24)CCCC3)cc1OC`, for which the GI50 with A549 is 21.3 µM (inactive); with SW-620, 35.8 µM (inactive); with EKVX it was 22.4 µM (inactive); in the test on K562, 30 µM (inactive); with MOLT-4, 19.9 µM (inactive); in the test with HCT-116, 29.4 µM (inactive). The GI50 is 15.3 µM (inactive) with SF-539; 31 µM (inactive) with SF-268; 32 µM (inactive) with UACC-257; 16.8 µM (inactive) in the test on LOX IMVI; 30.9 µM (inactive) with KM12; 29.3 µM (inactive) with NCI-H23. Moreover, the GI50 in the test with COLO 205 is 45 µM (inactive); in the test on RPMI-8226, 21 µM (inactive); in the test on CCRF-CEM it was 28.5 µM (inactive); in the test on SK-OV-3, 44.4 µM (inactive); in the test on U-251 it was 18.4 µM (inactive); with SNB-75, 14.3 µM (inactive). For the same compound, the GI50 in the test with NCI-H460 is 18.5 µM (inactive).
Take `Cc1cc(O)nc(NN2C(Cl)C(=O)C2c2ccco2)n1` (stereo not given): the GI50 in the test on A549 was 77.6 µM (inactive); in the test with SW-620, 64.9 µM (inactive); with EKVX it was 87.5 µM (inactive); with K562, 29.7 µM (inactive); in the test with MOLT-4, 21.8 µM (inactive); with HCT-116 it was 43.4 µM (inactive). The GI50 in the test with SF-539 was 22.6 µM (inactive); in the test on SF-268, 29.4 µM (inactive); in the test on UACC-257, 48.9 µM (inactive); with LOX IMVI, 23.3 µM (inactive); in the test on KM12, 44.6 µM (inactive); in the test with NCI-H23, 28 µM (inactive). In addition, the GI50 is 78.2 µM (inactive) in the test with COLO 205; 16.3 µM (inactive) in the test on RPMI-8226; 8.2 µM (inactive) in the test on CCRF-CEM; 30.5 µM (inactive) in the test with U-251; 13.7 µM (inactive) with SNB-75; 24.6 µM (inactive) in the test with NCI-H460.
Take `O=C(O)C(Br)Cc1ccc2c(c1)OCO2` (stereo not given): the GI50 in the test on A549, in the test on SW-620, in the test on EKVX, in the test with K562, with MOLT-4 and in the test on NCI-H522 was > 100 µM (inactive) throughout. Moreover, the GI50 in the test on HCT-116, in the test on SF-539, with SF-268, in the test on UACC-257, in the test on KM12 and with NCI-H23 was > 100 µM (inactive) each time. For the same compound, the GI50 was 55.7 µM (inactive) in the test on COLO 205; > 100 µM (inactive) in the test on RPMI-8226; > 100 µM (inactive) in the test on CCRF-CEM; > 100 µM (inactive) in the test with SK-OV-3; > 100 µM (inactive) in the test on U-251; 20.9 µM (inactive) in the test on SNB-75. Further, in the test with NCI-H460, the GI50 was > 100 µM (inactive).
`COC(=O)C1=C(C)N2CCSC2(C)C(C(=O)OC)C1c1cccc(Cl)c1` (stereo not given): the GI50 is 20.4 µM (inactive) in the test on A549; 37.1 µM (inactive) in the test with SW-620; 12.6 µM (inactive) with EKVX; 17.5 µM (inactive) in the test with K562; 14.6 µM (inactive) with MOLT-4; 13.6 µM (inactive) in the test with HCT-116. The GI50 with SF-539 was 11.5 µM (inactive); in the test with SF-268, 18.7 µM (inactive); in the test on UACC-257, 4.89 µM (inactive); in the test on KM12, 18.8 µM (inactive); in the test with NCI-H23 it was 20.5 µM (inactive); in the test on COLO 205, 18.5 µM (inactive). Further, the GI50 in the test on RPMI-8226 was 10.3 µM (inactive); with CCRF-CEM it was 23.1 µM (inactive); in the test with SNB-75 it was 10.2 µM (inactive); in the test with NCI-H460, 18.8 µM (inactive).
As to `COc1cc(CNc2nc3c(NC(C)=O)cc(C(F)(F)F)cc3nc2-c2ccccc2)cc(OC)c1OC`, the GI50 in the test with A549, in the test with SW-620, in the test on EKVX, in the test with K562, in the test on MOLT-4 and in the test with NCI-H522 was > 100 µM (inactive) in each case. Further, the GI50 with HCT-116, in the test with SF-539, with SF-268, in the test on LOX IMVI, with KM12 and in the test on COLO 205 was > 100 µM (inactive) in each case. For the same compound, the GI50 in the test with RPMI-8226, in the test on CCRF-CEM and in the test on SK-OV-3 was > 100 µM (inactive) in each case.
With `COc1c2c(c3ccccc3c1O)C1C=CC2C1` (stereo not given), the GI50 in the test with A549 is 19.2 µM (inactive); in the test with SW-620 it was 14.2 µM (inactive); in the test on EKVX, 18.8 µM (inactive); with K562, 3.85 µM (inactive); in the test with MOLT-4 it was 13.2 µM (inactive); with NCI-H522, 14.9 µM (inactive). Besides, the GI50 was 4 µM (inactive) with HCT-116; 14.6 µM (inactive) in the test on SF-539; 17.7 µM (inactive) with SF-268; 4.48 µM (inactive) with LOX IMVI; 17.6 µM (inactive) in the test with KM12; 14.6 µM (inactive) in the test on NCI-H23. The GI50 was 16.1 µM (inactive) in the test on COLO 205; > 100 µM (inactive) in the test on RPMI-8226; 4.72 µM (inactive) in the test on CCRF-CEM; > 10 µM (inactive) in the test with SK-OV-3; 11.7 µM (inactive) with U-251; 18.5 µM (inactive) in the test on NCI-H460.
On to `CC(=O)Nc1ccc(C(=O)N2N=C(C)/C(=C/c3ccc(O)cc3)C2=O)cc1`, for which the GI50 with A549, with SW-620, in the test with EKVX, in the test with K562, with MOLT-4 and in the test with NCI-H522 was > 100 µM (inactive) each time. The GI50 with HCT-116, in the test with SF-539, with SF-268, with UACC-257, in the test with LOX IMVI and in the test with KM12 was > 100 µM (inactive) throughout. Moreover, the GI50 with NCI-H23, in the test with COLO 205, in the test on RPMI-8226, with CCRF-CEM, with U-251 and in the test with SNB-75 was > 100 µM (inactive) in each case. In the test on NCI-H460, the GI50 is > 100 µM (inactive).
With `CC1CC2C3CCC4=CC(=O)C=CC4(C)C3(F)C(O)CC2(C)C1(O)C(=O)COP(=O)(O)O` (stereo not given), the GI50 in the test on A549 was > 100 µM (inactive); in the test with SW-620, > 100 µM (inactive); with EKVX, > 100 µM (inactive); with K562, > 100 µM (inactive); in the test on MOLT-4 it was > 62.7 µM (inactive); in the test with NCI-H522 it was > 100 µM (inactive). Further, the GI50 in the test with HCT-116 is > 33.7 µM (inactive); in the test on SF-539, > 100 µM (inactive); in the test on SF-268, > 100 µM (inactive); in the test on UACC-257, > 100 µM (inactive); in the test with LOX IMVI, > 100 µM (inactive); in the test on KM12 it was > 100 µM (inactive). For the same compound, the GI50 in the test on NCI-H23 is > 100 µM (inactive); in the test on COLO 205, > 100 µM (inactive); in the test with RPMI-8226, 3.42 µM (inactive); with CCRF-CEM, 0.144 µM (active); with U-251 it was > 100 µM (inactive); in the test on SNB-75 it was > 100 µM (inactive). In addition, the GI50 in the test with NCI-H460 is > 100 µM (inactive).
`O=C(Nc1c(Cl)cc([N+](=O)[O-])cc1Cl)/C(=N\Nc1cccc(Cl)c1)c1c(O)c2ccccc2oc1=O`: the GI50 with A549 was > 100 µM (inactive); with SW-620, > 100 µM (inactive); with EKVX it was 26.4 µM (inactive); in the test with K562 it was 65.9 µM (inactive); in the test with MOLT-4, > 100 µM (inactive); with NCI-H522, 39.9 µM (inactive). Further, the GI50 in the test on HCT-116 was 56.1 µM (inactive); in the test on SF-539, > 100 µM (inactive); in the test with SF-268, 69.8 µM (inactive); in the test on UACC-257, > 100 µM (inactive); in the test with KM12, > 100 µM (inactive); with NCI-H23, 62.7 µM (inactive). For the same compound, the GI50 in the test on COLO 205 was > 100 µM (inactive); in the test on RPMI-8226, 50 µM (inactive); with CCRF-CEM, 75.2 µM (inactive); in the test with SK-OV-3, > 100 µM (inactive); in the test with NCI-H460, > 100 µM (inactive).
